Data on four compounds can be found in patent US20250270199A1, “THIAZOLE DERIVATIVES AND METHODS OF USING THE SAME” (Arkansas State University - Jonesboro, priority 2022, published 2025).

For test [1], the system named is E. faecalis ATCC 29212 (Efs 12). The test can be described thus: MIC, broth microdilution, Efs 12. It counts as cell-based. The note with it: replicates from different days separated by comma; for Minimum inhibitory concentration (MIC) Efs 12: Table 1, HT series. The procedure, abridged: (§1)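 Compounds were serially diluted down the plate from 64 μg/mL and tested by broth microdilution following CLSI guidelines. Each MIC was read in duplicate, with three separate experiments performed on different days.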

In test [2] the test system is S. aureus LAC MRSA (Sa LAC). The test is described as follows: MIC, broth microdilution, Sa LAC. In kind it is cell-based. The note with it: Staphylococcus aureus, Table 1, HT series, read-out: Minimum inhibitory concentration (MIC) Sa LAC. The protocol: (§2) The broth microdilution method was utilized to determine MIC values of novel thiazole derivatives against different clinically important Gram-positive bacteria according to the guidelines outlined by the Clinical and Laboratory Standards Institute (CLSI) as reported in our recent papers.^1-5 The starting concentration of compounds for MIC determination was 64 μg/mL serially diluted down the wells and the MIC values were recorded in duplicates in three independent experiments on different days.

Test [3] has as its system E. faecium ATCC 700221 (Efm 21). The test is described as follows: MIC, broth microdilution, Efm 21. It counts as cell-based. The note with it: Enterococcus faecium, ATCC700221, Table 1, HT series; read-out: Minimum inhibitory concentration (MIC) Efm 21. The method in brief: as §1
A general note: In broth dilution the organism is exposed to a series of concentrations in liquid medium.

Test [4] concerns S. aureus ATCC 25923 (Sa 23). The test is described as follows: MIC, broth microdilution, Sa 23. It counts as cell-based. The settings on record: replicates from different days separated by comma; for MIC: Staphylococcus aureus, ATCC25923, Table 1, HT series, read-out: Minimum inhibitory concentration (MIC) Sa 23; for Minimum inhibitory concentration (MIC) Sa 23: Table 1, HT series. The method in brief:
as §1

In test [5] the test system is S. aureus ATCC 33592 (Sa 92). The test can be described thus: MIC, broth microdilution, Sa 92. It counts as cell-based. The note with it: Staphylococcus aureus, ATCC33592; Table 1, HT series; read-out: Minimum inhibitory concentration (MIC) Sa 92. The procedure, abridged:
as §1

Test [6] has as its system B. subtilis ATCC 6633 (Bs). The test can be described thus: MIC, broth microdilution, Bs. It counts as cell-based. The note with it: Bacillus subtilis, ATCC6633; Table 1, HT series; read-out: Minimum inhibitory concentration (MIC) Bs. The protocol: as §2
Test [7] deals with S. aureus ATCC 33591 (Sa 91). The test can be described thus: MIC, broth microdilution, Sa 91. It counts as cell-based. The note with it: Staphylococcus aureus, ATCC33591; Table 1, HT series; read-out: Minimum inhibitory concentration (MIC) Sa 91. The method in brief:
as §1

Test [8] has as its system S. aureus subsp. aureus Rosenbach BAA-1717 (Sa USA 300). The test can be described thus: MIC, broth microdilution, Sa USA 300. The note with it: Staphylococcus aureus; Table 1, HT series; read-out: Minimum inhibitory concentration (MIC) SA USA 300. It counts as cell-based. The method in brief: as §1
Test [9] has as its system S. aureus ATCC 700699 (Sa 99). The test is described as follows: MIC, broth microdilution, Sa 99. It counts as cell-based. The note with it: replicates from different days separated by comma; for MIC: Staphylococcus aureus, ATCC700699, Table 1, HT series, read-out: Minimum inhibitory concentration (MIC) Sa 99; for Minimum inhibitory concentration (MIC) Sa 99: Table 1, HT series. The procedure, abridged:
as §1

Test [10] has as its system E. faecalis ATCC 51299 (Efs 99). The test is described as follows: MIC, broth microdilution, Efs 99. It counts as cell-based. The note with it: Enterococcus faecalis, ATCC51299; Table 1, HT series; read-out: Minimum inhibitory concentration (MIC) Efs 99. The method in brief: as §1
Test [11] has as its system S. aureus subsp. aureus Rosenbach ATCC 25904 (SA Newman). The test is described as follows: MIC, broth microdilution, SA Newman. It counts as cell-based. The note with it: Staphylococcus aureus; Table 1, HT series; read-out: Minimum inhibitory concentration (MIC) Sa Newman. The procedure, abridged: as §1
Test [12] relates to S. aureus ATCC BAA-2312 (Sa 12). The test can be described thus: MIC, broth microdilution, Sa 12. The settings on record: Staphylococcus aureus, ATCCBAA2312; Table 1, HT series; read-out: Minimum inhibitory concentration (MIC) Sa 12. It counts as cell-based. The method in brief:
as §1

The test system of test [13] is S. epidermidis ATCC 700296 (Se). The test is described as follows: MIC, broth microdilution, Se. It counts as cell-based. The note with it: Staphylococcus epidermidis, ATCC700296; Table 1, HT series; read-out: Minimum inhibitory concentration (MIC) Se. The procedure, abridged: as §1
Test [14] concerns Sa UAMS-1 MRSA ATCC 49230 (Sa UAMS). The test is described as follows: MIC, broth microdilution, Sa UAMS. The note with it: Staphylococcus aureus; Table 1, HT series; read-out: Minimum inhibitory concentration (MIC) Sa UAMS. In kind it is cell-based, S. aureus. The procedure, abridged:
as §1

≈ marks a conversion by molar mass, not a printed value. Where “and” joins values, the source holds several entries; their conditions need not be identical. Equal entries are not always repeated.

Take `Oc1ccc(-c2nc(-c3ccc(Br)cc3)cs2)cc1O` [Compound 5, 4-(4-(4-bromophenyl)thiazol-2-yl)benzene-1,2-diol]: the “Minimum inhibitory concentration (MIC) Efs 12” value in test [1] is 16 μg/mL (2×) and 2 μg/mL. The MIC was determined as 4 µg/mL (≈ 11.5 µM) in test [2]; 16 µg/mL (≈ 45.9 µM) in test [3]; 2 µg/mL (≈ 5.74 µM) in test [4]; 8 µg/mL (≈ 23 µM) in test [5]; 16 µg/mL (≈ 45.9 µM) in test [6]; 4 µg/mL (≈ 11.5 µM) in [7]. Further, the MIC in [8] is 8 µg/mL (≈ 23 µM); in test [9], 2 µg/mL (≈ 5.74 µM); in test [10], 16 µg/mL (≈ 45.9 µM); in [11], 4 µg/mL (≈ 11.5 µM); in test [12] it was 8 µg/mL (≈ 23 µM); in test [13], 8 µg/mL (≈ 23 µM). Further, in test [14], the MIC was 8 µg/mL (≈ 23 µM). In test [4], the “Minimum inhibitory concentration (MIC) Sa 23” value is 2, 2, 2 μg/mL. For the same compound, in [9], the “Minimum inhibitory concentration (MIC) Sa 99” value was 2, 2, 2 μg/mL.

With `Oc1ccc(-c2nc(-c3ccc(C(F)(F)F)cc3)cs2)cc1O` [Compound 9, 4-(4-(4-(trifluoromethyl)phenyl)thiazol-2-yl)benzene-1,2-diol], the “Minimum inhibitory concentration (MIC) Efs 12” value in test [1] was 16 µg/mL and 2 µg/mL and 8 µg/mL. For the same compound, the MIC is 8 µg/mL (≈ 23.7 µM) in [2]; 16 µg/mL (≈ 47.4 µM) in test [3]; 2 µg/mL (≈ 5.93 µM) in test [4]; 8 µg/mL (≈ 23.7 µM) in test [5]; 8 µg/mL (≈ 23.7 µM) in test [6]; 4 µg/mL (≈ 11.9 µM) in [7]. Moreover, the MIC in [8] was 4 µg/mL (≈ 11.9 µM); in [9], 2 µg/mL (≈ 5.93 µM); in test [10], 16 µg/mL (≈ 47.4 µM); in [11], 4 µg/mL (≈ 11.9 µM); in test [12], 4 µg/mL (≈ 11.9 µM); in [13] it was 8 µg/mL (≈ 23.7 µM). For the same compound, in test [14], the MIC is 4 µg/mL (≈ 11.9 µM). The “Minimum inhibitory concentration (MIC) Sa 23” value in test [4] is 2, 2, 2 μg/mL. Moreover, the “Minimum inhibitory concentration (MIC) Sa 99” value in test [9] is listed as 2, 2, 2 μg/mL.

As for `Oc1ccc(-c2nc(-c3cc(C(F)(F)F)cc(C(F)(F)F)c3)cs2)cc1O` [Compound 10, 4-(4-(3,5-bis(trifluoromethyl)phenyl)thiazol-2-yl)benzene-1,2-diol], the “Minimum inhibitory concentration (MIC) Efs 12” value in [1] is 16 µg/mL and 2 µg/mL and 8 µg/mL. Further, the MIC is 2 µg/mL (≈ 4.93 µM) in test [2]; 8 µg/mL (≈ 19.7 µM) in test [3]; 2 µg/mL (≈ 4.93 µM) in test [4]; 2 µg/mL (≈ 4.93 µM) in [5]; 8 µg/mL (≈ 19.7 µM) in test [6]; 2 µg/mL (≈ 4.93 µM) in [7]. Besides, the MIC is 4 µg/mL (≈ 9.87 µM) in test [8]; 2 µg/mL (≈ 4.93 µM) in [9]; 8 µg/mL (≈ 19.7 µM) in test [10]; 2 µg/mL (≈ 4.93 µM) in [11]; 2 µg/mL (≈ 4.93 µM) in test [12]; 8 µg/mL (≈ 19.7 µM) in [13]. In test [14], the MIC came to 2 µg/mL (≈ 4.93 µM). Moreover, the “Minimum inhibitory concentration (MIC) Sa 23” value in [4] was 1 µg/mL and 2 µg/mL. Also, the “Minimum inhibitory concentration (MIC) Sa 99” value in test [9] was 2, 2, 2 μg/mL.

In the case of `Oc1ccc(-c2nc(-c3ccc(Cl)c(Cl)c3)cs2)cc1` [Compound 41, 4-(4-(3,4-dichlorophenyl)thiazol-2-yl)phenol], the MIC came out at 2 µg/mL (≈ 6.21 µM) in test [1] (Enterococcus faecalis, ATCC29212, Table 1, HT series, read-out: Minimum inhibitory concentration (MIC) Efs 12); 2 µg/mL (≈ 6.21 µM) in test [3]; 1 µg/mL (≈ 3.1 µM) in [4]; 1 µg/mL (≈ 3.1 µM) in test [5]; 4 µg/mL (≈ 12.4 µM) in [6]; 1 µg/mL (≈ 3.1 µM) in [7]. For the same compound, the MIC in test [8] came to 1 µg/mL (≈ 3.1 µM); in [9], 1 µg/mL (≈ 3.1 µM); in test [10], 2 µg/mL (≈ 6.21 µM); in test [11] it was 2 µg/mL (≈ 6.21 µM); in [12], 1 µg/mL (≈ 3.1 µM); in [13] it was 1 µg/mL (≈ 3.1 µM). Moreover, the MIC in test [14] worked out at 2 µg/mL (≈ 6.21 µM).
